Measurements as given in BindingDB's records for doi:10.1021/jm060742o (Rheinische Friedrich-Wilhelms-Universitat Bonn, 2006).

Key:
Experiment in all cases: Cholinesterase Inhibition Assay
[1] = target: Cholinesterase (Homo sapiens, UniProt P06276)
Experimental: (§1) The cholinesterase assays were performed using colorimetric method reported by Ellman. The absorbance changed at 412 nm and was monitored with spectrophotometer. The reaction rates were compared and the percent inhibition due to the presence of test compounds was calculated. Inhibition curve was obtained for each compound. The compound concentration producing 50% of enzyme inhibition (IC50) was determined.

[2] = target: Acetylcholinesterase (Homo sapiens, UniProt P22303); details: pH 7.3; 25 °C
Sequence of Acetylcholinesterase (Homo sapiens, UniProt P22303) (P22303 whole entry): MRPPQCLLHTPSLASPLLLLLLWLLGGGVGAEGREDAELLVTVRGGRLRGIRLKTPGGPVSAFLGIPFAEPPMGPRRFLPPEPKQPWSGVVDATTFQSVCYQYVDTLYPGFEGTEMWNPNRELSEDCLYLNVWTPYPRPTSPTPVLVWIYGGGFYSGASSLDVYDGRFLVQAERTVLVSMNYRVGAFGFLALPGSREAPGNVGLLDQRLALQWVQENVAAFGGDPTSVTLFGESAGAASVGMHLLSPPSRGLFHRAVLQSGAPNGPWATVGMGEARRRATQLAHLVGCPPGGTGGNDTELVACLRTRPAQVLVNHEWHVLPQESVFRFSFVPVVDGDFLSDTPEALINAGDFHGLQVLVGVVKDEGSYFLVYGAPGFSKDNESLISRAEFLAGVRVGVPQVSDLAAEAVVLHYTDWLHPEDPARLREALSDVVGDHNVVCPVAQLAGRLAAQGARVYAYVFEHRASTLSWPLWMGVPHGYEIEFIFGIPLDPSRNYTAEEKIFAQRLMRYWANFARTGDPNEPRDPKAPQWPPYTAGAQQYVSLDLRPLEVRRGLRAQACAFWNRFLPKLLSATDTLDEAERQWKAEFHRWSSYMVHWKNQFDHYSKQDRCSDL
Experimental: as §1

[3] = target: Acetylcholinesterase (Tetronarce californica, UniProt P04058)
Sequence of Acetylcholinesterase (Tetronarce californica, UniProt P04058) (P04058 whole entry): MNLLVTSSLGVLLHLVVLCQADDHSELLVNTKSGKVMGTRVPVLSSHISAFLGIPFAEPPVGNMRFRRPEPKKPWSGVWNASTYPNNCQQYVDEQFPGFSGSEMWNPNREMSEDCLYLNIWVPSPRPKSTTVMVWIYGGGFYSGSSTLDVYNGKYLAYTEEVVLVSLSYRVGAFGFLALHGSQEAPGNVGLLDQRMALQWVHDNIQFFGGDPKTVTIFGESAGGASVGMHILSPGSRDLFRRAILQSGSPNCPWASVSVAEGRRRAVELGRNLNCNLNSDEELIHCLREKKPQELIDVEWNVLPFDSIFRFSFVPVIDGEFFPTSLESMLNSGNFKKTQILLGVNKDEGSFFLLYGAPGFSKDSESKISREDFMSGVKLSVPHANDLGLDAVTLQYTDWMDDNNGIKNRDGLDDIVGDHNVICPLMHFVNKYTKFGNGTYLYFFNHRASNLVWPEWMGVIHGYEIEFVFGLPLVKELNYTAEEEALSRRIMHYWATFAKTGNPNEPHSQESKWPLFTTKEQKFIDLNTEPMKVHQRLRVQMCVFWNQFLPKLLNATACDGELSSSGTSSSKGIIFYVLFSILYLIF
Experimental: as §1

[4] = target: Acetylcholinesterase (Electrophorus electricus, UniProt O42275)
Sequence of Acetylcholinesterase (Electrophorus electricus, UniProt O42275) (O42275 whole entry): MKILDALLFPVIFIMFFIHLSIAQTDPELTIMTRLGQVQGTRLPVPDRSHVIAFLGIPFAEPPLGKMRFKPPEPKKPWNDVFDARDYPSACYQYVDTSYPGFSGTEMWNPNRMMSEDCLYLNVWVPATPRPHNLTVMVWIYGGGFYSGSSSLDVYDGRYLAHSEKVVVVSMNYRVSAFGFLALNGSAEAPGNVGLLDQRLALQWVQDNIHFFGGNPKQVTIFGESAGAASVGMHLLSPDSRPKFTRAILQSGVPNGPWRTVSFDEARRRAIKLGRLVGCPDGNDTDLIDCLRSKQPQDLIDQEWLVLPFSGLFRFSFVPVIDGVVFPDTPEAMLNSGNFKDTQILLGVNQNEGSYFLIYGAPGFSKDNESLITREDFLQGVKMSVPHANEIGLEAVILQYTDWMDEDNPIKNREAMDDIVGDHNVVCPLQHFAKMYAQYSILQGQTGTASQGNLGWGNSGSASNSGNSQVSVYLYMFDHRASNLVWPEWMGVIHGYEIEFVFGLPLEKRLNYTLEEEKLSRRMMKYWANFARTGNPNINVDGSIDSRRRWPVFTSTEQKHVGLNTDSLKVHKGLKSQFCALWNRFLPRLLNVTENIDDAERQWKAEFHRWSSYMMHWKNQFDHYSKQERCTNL
Experimental: as §1

Sequence of Cholinesterase (P06276 whole entry): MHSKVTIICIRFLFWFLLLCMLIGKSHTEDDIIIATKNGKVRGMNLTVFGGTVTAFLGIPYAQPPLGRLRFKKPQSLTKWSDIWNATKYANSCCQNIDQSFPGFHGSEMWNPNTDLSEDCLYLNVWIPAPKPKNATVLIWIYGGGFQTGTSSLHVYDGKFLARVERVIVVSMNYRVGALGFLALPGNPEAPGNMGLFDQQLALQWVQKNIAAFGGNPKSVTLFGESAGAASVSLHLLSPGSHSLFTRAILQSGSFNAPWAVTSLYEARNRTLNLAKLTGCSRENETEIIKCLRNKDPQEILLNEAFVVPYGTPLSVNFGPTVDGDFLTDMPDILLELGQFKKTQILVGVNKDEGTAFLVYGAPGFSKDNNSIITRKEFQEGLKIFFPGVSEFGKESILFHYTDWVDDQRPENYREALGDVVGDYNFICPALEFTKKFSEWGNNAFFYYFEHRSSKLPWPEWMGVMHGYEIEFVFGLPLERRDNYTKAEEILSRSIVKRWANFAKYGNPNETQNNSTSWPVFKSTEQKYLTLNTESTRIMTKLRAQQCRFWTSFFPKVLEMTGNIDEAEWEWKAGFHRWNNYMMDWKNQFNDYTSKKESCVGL

Row | Compound | IC50 [1] | IC50 [2] | IC50 [3] | IC50 [4] | Ki [4]
1 | COc1cc(C(=O)NCCCCCCCCC(=O)NNc2c3c(nc4ccccc24)CCCC3)cc(OC)c1OC [3,4,5-Trimethoxy-N-(9-oxo-9-(2-(1,2,3,4-tetrahydroacridin-9-yl)hydrazino)nonyl)-benzamide] | 1.38 nM | 5.08 nM | 5.99 nM | 2.73 nM | –
2 | COc1cc(C(=O)NCCCCCCCC(=O)NNc2c3c(nc4ccccc24)CCCC3)cc(OC)c1OC [3,4,5-trimethoxy-N-[7-(N'-1,2,3,4-tetrahydroacridin-9-ylhydrazinecarbonyl)heptyl]benzamide] | – | – | – | – | 3.23 nM
